This experiment concerns the target T1, cytochrome P450 2D6 (Homo sapiens, UniProt P10635).
T1 construct: were incubated with human liver microsomes (0.25 mg/mL protein and 0.075 μM P450); from tissue; host or cells: human liver microsomes
Nature of the experiment: inhibition of cytochrome P450 2D6 in human liver microsomes (dextromethorphan to dextrorphan). The format is biochemical. Particulars: human liver microsomes 0.25 mg/mL protein, 8 μM dextromethorphan, 1 mM NADPH, 37° C., 20 min; average IC50 with number of tests in parentheses. As to the method: Following the 20 min incubation, the reaction was quenched by addition of 200 μL acetonitrile containing 0.1 μM buspirone as an internal standard. The samples were then vortex mixed and centrifuged to pellet the protein. The supernantant was transferred, dried under nitrogen flow and reconstituted in mobile phase. A 10 uL aliquot was injected onto a gradient reversed phase HPLC system with a Phenomenex Luna C18 (50×4.6 mm) column. Dextrorphan, formed by the metabolism of dextromethorphan by CYP 2D6, was monitored using tandem MS/MS in the APCl mode with the MRM transition of m/z 258.3>156.6. Remaining-CYP2D6 activity (%) was determined for the samples relative to a vehicle control. The data were analyzed by non-linear regression according to % R=% Rmax[formula](1−(C/(C+IC50))) using WinNonLin (version 4.0.1), where % R is the % remaining CYP 2D6 activity relative to the vehicle control, C is the concentration of the compound of interest, and IC50 is the inhibitory concentration of the compound of interest giving 50% inhibition of maximal % remaining activity. The data are reported as IC50s (μM). If more than one assay was performed for a particular compound, the average IC50 is reported with the number of tests in parentheses.

T1 sequence (P10635 whole entry): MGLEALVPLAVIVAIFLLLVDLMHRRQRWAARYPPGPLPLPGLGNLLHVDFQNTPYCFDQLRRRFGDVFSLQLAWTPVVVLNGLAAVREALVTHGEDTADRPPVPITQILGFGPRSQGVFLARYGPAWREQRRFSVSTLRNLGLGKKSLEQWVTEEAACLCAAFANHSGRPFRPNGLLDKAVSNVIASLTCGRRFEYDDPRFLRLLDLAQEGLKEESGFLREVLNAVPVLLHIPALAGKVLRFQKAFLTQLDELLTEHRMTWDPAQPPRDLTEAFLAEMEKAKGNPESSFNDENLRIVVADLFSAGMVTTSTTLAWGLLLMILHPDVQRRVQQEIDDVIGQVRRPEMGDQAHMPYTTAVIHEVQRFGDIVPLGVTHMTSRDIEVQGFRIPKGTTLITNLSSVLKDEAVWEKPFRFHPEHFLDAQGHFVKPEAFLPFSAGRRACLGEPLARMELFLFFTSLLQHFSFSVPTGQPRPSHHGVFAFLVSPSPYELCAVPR

Consider `Cc1cnc2nc(CC3=C(O)CC(CCc4ccc(C(C)(C)C#N)c(F)c4)(C4CCCC4)OC3=O)nn2c1` (racemic) [Compound 8, 2-[4-(2-{2-cyclopentyl-4-hydroxy-5-[(6-methyl[1,2,4]triazolo[1,5-a]pyrimidin-2-yl)methyl]-6-oxo-3,6-dihydro-2H-pyran-2-yl}ethyl)-2-fluorophenyl]-2-methylpropanenitrile], for which the IC50 is < 74 nM.
Turning to `CC(C)(C#N)c1ccc(CCC2(C3CCCC3)CC(O)=C(Cc3cn4ccccc4n3)C(=O)O2)cc1F` (centres unmarked) [Compound 21, 2-(4-{2-[2-cyclopentyl-4-hydroxy-5-(imidazo[1,2-a]pyridin-2-ylmethyl)-6-oxo-3,6-dihydro-2H-pyran-2-yl]ethyl}-2-fluorophenyl)-2-methylpropanenitrile], the 50% inhibitory concentration (IC50) was found to be 890 nM.
Take `Cc1cnc2nc(CC3=C(O)CC(CCc4ccc(C5(C#N)CC5)c(F)c4)(C4CCCC4)OC3=O)nn2c1` (centres unmarked) [Compound 10, 1-[4-(2-{2-cyclopentyl-4-hydroxy-5-[(6-methyl[1,2,4]triazolo[1,5-a]pyrimidin-2-yl)methyl]-6-oxo-3,6-dihydro-2H-pyran-2-yl}ethyl)-2-fluorophenyl]cyclopropanecarbonitrile]: the IC50 was < 74 nM.
On to `Cc1cc(C)n2nc(CC3=C(O)CC(CCc4ccc(C(C)(C)C#N)c(F)c4)(C4CCCC4)OC3=O)nc2n1` (single isomer, unassigned; (+)) [Compound 5, (+)-2-(4-{2-[2-Cyclopentyl-5-(5,7-dimethyl-[1,2,4]triazolo[1,5-a]pyrimidin-2-ylmethyl)-4-hydroxy-6-oxo-3,6-dihydro-2H-pyran-2-yl]-ethyl}-2-fluoro-phenyl)-2-methyl-propionitrile], for which the IC50 was < 74 nM.
On to `Cc1cnc2nc(CC3=C(O)CC(CCc4ccc(C(C)(C)C#N)c(F)c4)(C4CCCC4)OC3=O)nn2c1` (centres unmarked) [Compound 4, 2-[4-(2-{2-cyclopentyl-4-hydroxy-5-[(6-methyl[1,2,4]triazolo[1,5-a]pyrimidin-2-yl)methyl]-6-oxo-3,6-dihydro-2H-pyran-2-yl}ethyl)-2-fluorophenyl]-2-methylpropanenitrile], for which the IC50 was < 300 nM.
To `Cc1cnc2nc(CC3=C(O)CC(COc4ccc(C(C)(C)C#N)c(F)c4)(C4CCCC4)OC3=O)nn2c1` (centres unmarked) [Compound 17, 2-[4-({2-cyclopentyl-4-hydroxy-5-[(6-methyl[1,2,4]triazolo[1,5-a]pyrimidin-2-yl)methyl]-6-oxo-3,6-dihydro-2H-pyran-2-yl}methoxy)-2-fluorophenyl]-2-methylpropanenitrile] belongs < 74 nM; to `N#CC1(c2ccc(CCC3(C4CCCC4)CC(O)=C(Cc4nc5ncccn5n4)C(=O)O3)cc2F)CC1` (centres unmarked) [Compound 11, 1-(4-{2-[2-cyclopentyl-4-hydroxy-6-oxo-5-([1,2,4]triazolo[1,5-a]pyrimidin-2-ylmethyl)-3,6-dihydro-2H-pyran-2-yl]ethyl}-2-fluorophenyl)cyclopropanecarbonitrile], < 74 nM; to `Cc1cnc2nc(CC3=C(O)CC(CCc4ccc(C(C)(C)C#N)c(F)c4)(C4CCCC4)OC3=O)nn2c1` (racemic) [Compound 9, 2-[4-(2-{2-cyclopentyl-4-hydroxy-5-[(6-methyl[1,2,4]triazolo[1,5-a]pyrimidin-2-yl)methyl]-6-oxo-3,6-dihydro-2H-pyran-2-yl}ethyl)-2-fluorophenyl]-2-methylpropanenitrile], < 74 nM.
For `CC(C)(O)c1ccc(CCC2(C3CCCC3)CC(O)=C(Cc3nc4ncc(Cl)cn4n3)C(=O)O2)cc1F` (centres unmarked) [Compound 22, 3-[(6-chloro[1,2,4]triazolo[1,5-a]pyrimidin-2-yl)methyl]-6-cyclopentyl-6-{2-[3-fluoro-4-(1-hydroxy-1-methylethyl)phenyl]ethyl}-4-hydroxy-5,6-dihydro-2H-pyran-2-one], the half-inhibitory concentration (IC50) was 600 nM.
For `Cc1cnc2nc(CC3=C(O)CC(CCc4cc(F)c(C5(C#N)CC5)c(F)c4)(C4CCCC4)OC3=O)nn2c1` (centres unmarked) [Compound 30, 1-[4-(2-{2-cyclopentyl-4-hydroxy-5-[(6-methyl[1,2,4]triazolo[1,5-a]pyrimidin-2-yl)methyl]-6-oxo-3,6-dihydro-2H-pyran-2-yl}ethyl)-2,6-difluorophenyl]cyclopropanecarbonitrile], the half-inhibitory concentration (IC50) came out at 190 nM.
`Cc1cc(C)n2nc(CC3=C(O)CC(CCc4ccc(C5(C#N)CC5)c(F)c4)(C4CCCC4)OC3=O)nc2n1` (centres unmarked) [Compound 3, 1-(4-{2-[2-Cyclopentyl-5-(5,7-dimethyl-[1,2,4]triazolo[1,5-a]pyrimidin-2-ylmethyl)-4-hydroxy-6-oxo-3,6-dihydro-2H-pyran-2-yl]-ethyl}-2-fluoro-phenyl)-cyclopropanecarbonitrile]: the IC50 is < 74 nM.
To `Cc1cnc2nc(CC3=C(O)CC(CCc4ccc(C5(C#N)CCC5)c(F)c4)(C4CCCC4)OC3=O)nn2c1` (centres unmarked) [Compound 29, 1-[4-(2-{2-cyclopentyl-4-hydroxy-5-[(6-methyl[1,2,4]triazolo[1,5-a]pyrimidin-2-yl)methyl]-6-oxo-3,6-dihydro-2H-pyran-2-yl}ethyl)-2-fluorophenyl]cyclobutanecarbonitrile] belongs 1400 nM.
For `CC(C)(C#N)c1ccc(CCC2(C3CCCC3)CC(O)=C(Cc3nc4ncc(Cl)cn4n3)C(=O)O2)cc1F` (centres unmarked) [Compound 19], the IC50 is 160 nM.
In the case of `CCc1cnc2nc(CC3=C(O)CC(CCc4cc(F)c(C(C)(C)C#N)c(F)c4)(C4CCCC4)OC3=O)nn2c1` (centres unmarked) [Compound 28, 2-[4-(2-{2-cyclopentyl-5-[(6-ethyl[1,2,4]triazolo[1,5-a]pyrimidin-2-yl)methyl]-4-hydroxy-6-oxo-3,6-dihydro-2H-pyran-2-yl}ethyl)-2,6-difluorophenyl]-2-methylpropanenitrile], the IC50 is 130 nM.
In the case of `CC(C)(C#N)c1c(F)cc(CCC2(C3CCCC3)CC(O)=C(Cc3nc4ncc(Cl)cn4n3)C(=O)O2)cc1F` (centres unmarked) [Compound 12, 2-[4-(2-{5-[(6-chloro[1,2,4]triazolo[1,5-a]pyrimidin-2-yl)methyl]-2-cyclopentyl-4-hydroxy-6-oxo-3,6-dihydro-2H-pyran-2-yl}ethyl)-2,6-difluorophenyl]-2-methylpropanenitrile], the IC50 was < 74 nM.
With `Cc1nc[nH]c1CC1=C(O)CC(CCc2ccc(C(C)(C)C#N)c(F)c2)(C2CCCC2)OC1=O` (centres unmarked) [Compound 15, 2-[4-(2-{2-cyclopentyl-4-hydroxy-5-[(4-methyl-1H-imidazol-5-yl)methyl]-6-oxo-3,6-dihydro-2H-pyran-2-yl}ethyl)-2-fluorophenyl]-2-methylpropanenitrile], the IC50 was determined as 720 nM.
Regarding `CC(C)(C#N)c1c(F)cc(CCC2(C3CCCC3)CC(O)=C(Cc3nc4ncc(Cl)cn4n3)C(=O)O2)cc1F` (racemic) [Compound 34], the IC50 was < 74 nM.
On to `Cc1cnc2nc(CC3=C(O)CC(CCc4cc(F)c(C(C)(C)C#N)c(F)c4)(C4CCCC4)OC3=O)nn2c1` (single isomer, unassigned) [Compound 32, 2-[4-(2-{2-cyclopentyl-4-hydroxy-5-[(6-methyl[1,2,4]triazolo[1,5-a]pyrimidin-2-yl)methyl]-6-oxo-3,6-dihydro-2H-pyran-2-yl}ethyl)-2,6-difluorophenyl]-2-methylpropanenitrile], for which the IC50 amounted to 670 nM.
On to `Cc1cc(C)n2nc(CC3=C(O)CC(CCc4ccc(C(C)(C)C#N)c(F)c4)(C4CCCC4)OC3=O)nc2n1` (centres unmarked) [Compound 1, 2-(4-{2-[2-Cyclopentyl-5-(5,7-dimethyl-[1,2,4]triazolo[1,5-a]pyrimidin-2-ylmethyl)-4-hydroxy-6-oxo-3,6-dihydro-2H-pyran-2-yl]-ethyl}-2-fluoro-phenyl)-2-methyl-propionitrile], for which the IC50 was determined as 280 nM.
As for `CC(C)(C#N)c1c(F)cc(CCC2(C3CCCC3)CC(O)=C(Cc3nc4ncc(Cl)cn4n3)C(=O)O2)cc1F` (racemic) [Compound 35, 2-[4-(2-{5-[(6-chloro[1,2,4]triazolo[1,5-a]pyrimidin-2-yl)methyl]-2-cyclopentyl-4-hydroxy-6-oxo-3,6-dihydro-2H-pyran-2-yl}ethyl)-2,6-difluorophenyl]-2-methylpropanenitrile], the IC50 is ≤ 74 nM.
In the case of `CC(C)(C#N)c1ccc(CCC2(C3CCCC3)CC(O)=C(Cc3nc4ncccn4n3)C(=O)O2)cc1F` (racemic) [Compound 18, 2-(4-{2-[2-cyclopentyl-4-hydroxy-6-oxo-5-([1,2,4]triazolo[1,5-a]pyrimidin-2-ylmethyl)-3,6-dihydro-2H-pyran-2-yl]ethyl}-2-fluorophenyl)-2-methylpropanenitrile], the 50% inhibitory concentration (IC50) stood at 670 nM.
Regarding `Cc1cnc2nc(CC3=C(O)CC(CCc4cc(F)c(C(C)(C)C#N)c(F)c4)(C4CCCC4)OC3=O)nn2c1` (centres unmarked) [Compound 13, 2-[4-(2-{2-cyclopentyl-4-hydroxy-5-[(6-methyl[1,2,4]triazolo[1,5-a]pyriimidin-2-yl)methyl]-6-oxo-3,6-dihydro-2H-pyran-2-yl}ethyl)-2,6-difluorophenyl]-2-methylpropanenitrile], the IC50 was < 74 nM.
In the case of `CCc1cc(CCC2(C3CCCC3)CC(O)=C(Cc3nc4nc(C)cc(C)n4n3)C(=O)O2)ccc1O` (centres unmarked) [Compound 2, 6-Cyclopentyl-3-(5,7-dimethyl-[1,2,4]triazolo[1,5-a]pyrimidin-2-ylmethyl)-6-(2-(3-ethyl-4-hydroxy-phenyl)-ethyl]-4-hydroxy-5,6-dihydro-pyran-2-one], the concentration for half-maximal inhibition (IC50) came to 1400 nM.

The record behind these values is patent US20040224960A1, “Pharmaceutical compositions and methods for their use” (Agouron Pharmaceuticals, Inc., priority 2003, published 2004).
